Assay results published in paper PMC7155171, “Probing the Open Global Health Chemical Diversity Library for Multistage-Active Starting Points for Next-Generation Antimalarials” (ACS Infectious Diseases, 2020).
Like-named read-outs stand apart in the source and are kept apart here.

Test system: P. falciparum (NF54) stage V gametocytes
Assay: Stage V gametocyte viability assay (MitoTracker Red CMXRos high content imaging)
Format: cell-based, Plasmodium falciparum
Settings: Plasmodium falciparum; for inhibition at 2 µM: read-out: Stg V Gam primary screen: Inhibition % (2uM) (n=2)
[1] = NF54, read-out: Stg V Gam dose response IC50 (µM) (n=3), 10-point dose response, n=3, 72 h
[2] = NF54, 72 h, read-out: Stg V Gam dose response IC50 (µM) (n=3), 10-point dose response, n=3, 72 h
[3] = NF54, 72 h, read-out: GAM V IC50, stage V gametocytes, 72 h

Row | SMILES | IC50 [1] | inhibition at 2 µM (NF54, Table S6, 2uM, n=2, 72 h) | IC50 [2] | inhibition at 2 µM (NF54, 72 h) | IC50 [3]
1 | CCCc1nc2c(c(C)c(C)n2CCN(C)C)c(N)c1CC [DDD01026700, CCCC1=C(CC)C(N)=C2C(C)=C(C)N(CCN(C)C)C2=N1] | 0.97 µM | 49.2% | – | – | –
2 | CCc1c(-c2ccccc2)nc2c(c(C)c(C)n2CCN(C)C)c1N [DDD01026714, CCC1=C(N=C2N(CCN(C)C)C(C)=C(C)C2=C1N)C1=CC=CC=C1] | – | – | 0.868 µM | 56.1% | –
3 | CC(C)Nc1nc2c(c(NC3CC3)n1)CCN(C1CCOCC1)CC2 [DDD01029612, CC(C)NC1=NC2=C(CCN(CC2)C2CCOCC2)C(NC2CC2)=N1] | – | – | 4.48 µM | 57% | –
4 | Cc1cccc(CN2Cc3[nH]nc(COCCO)c3C2)n1 [DDD01030906, CC1=CC=CC(CN2CC3=C(C2)C(COCCO)=NN3)=N1] | – | – | 1.47 µM | 82.1% | –
5 | CC(C)Nc1nc2c(c(NC3CC3)n1)CCN(Cc1nccn1C)CC2 [DDD01031405, CC(C)NC1=NC2=C(CCN(CC3=NC=CN3C)CC2)C(NC2CC2)=N1] | – | – | 2.65 µM | 58.7% | –
6 | Cc1cccc(CN2C[C@@H]3COC[C@H](NS(C)(=O)=O)[C@@H]3C2)n1 [DDD01032715, CC1=CC=CC(CN2C[C@@H]3COC[C@H](NS(C)(=O)=O)[C@@H]3C2)=N1] | 1.54 µM | 70.6% | – | – | –
7 | Cc1cccc(CN2CCC3(CCN(c4cccnc4)C3=O)C2)n1 (stereo not shown) [DDD01033290, CC1=CC=CC(CN2CCC3(CCN(C3=O)C3=CC=CN=C3)C2)=N1] | 0.46 µM | 75.8% | – | – | –
8 | CO[C@H]1CCN(Cc2cccc(C)n2)[C@@H]2CN(Cc3cccnc3)C[C@H]12 [DDD01036932, CO[C@H]1CCN(CC2=CC=CC(C)=N2)[C@@H]2CN(CC3=CC=CN=C3)C[C@H]12] | – | – | 0.276 µM | 78.9% | –
9 | Cc1cc(C)n(C2=NC(NCCC(C)C)c3c(sc4c3CCCC4)N2)n1 (stereo not shown) [DDD01037468, CC(C)CCNC1N=C(NC2=C1C1=C(CCCC1)S2)N1N=C(C)C=C1C] | – | – | > 10 µM | – | –
10 | Cc1cc(C)n(C2=NC(NCCCO)c3c(sc4c3CCCC4)N2)n1 (stereo not shown) [DDD01037469, CC1=NN(C(C)=C1)C1=NC(NCCCO)C2=C(N1)SC1=C2CCCC1] | – | – | 0.39 µM | 91.5% | –
11 | c1ccc(CCN2CCCC2c2cccc(Nc3nccs3)n2)cc1 (stereo not shown) [DDD01056785, C(CC1=CC=CC=C1)N1CCCC1C1=CC=CC(NC2=NC=CS2)=N1] | – | – | 0.392 µM | 73.4% | 0.39 µM
12 | Cc1cnc(Nc2cccc(C3CCCN3Cc3cn(C)nc3C)n2)s1 (stereo not shown) [DDD01056825, CN1C=C(CN2CCCC2C2=NC(NC3=NC=C(C)S3)=CC=C2)C(C)=N1] | – | – | 0.095 µM | 85.8% | 0.09 µM
13 | Cc1ccccc1CN1CCCC1c1cccc(Nc2nccs2)n1 (stereo not shown) [DDD01057017, CC1=CC=CC=C1CN1CCCC1C1=CC=CC(NC2=NC=CS2)=N1] | – | – | 0.261 µM | – | 0.26 µM
14 | Cc1nn(C)cc1CN1CCCC1c1cccc(Nc2nccs2)n1 (stereo not shown) [DDD01057079, CN1C=C(CN2CCCC2C2=CC=CC(NC3=NC=CS3)=N2)C(C)=N1] | – | – | 0.578 µM | 84.4% | 0.58 µM
15 | COc1cccc(CN2CCCC2c2cncc(Nc3nncs3)n2)c1 (stereo not shown) [DDD01058609, COC1=CC=CC(CN2CCCC2C2=CN=CC(NC3=NN=CS3)=N2)=C1] | – | – | 0.534 µM | 63.5% | 0.53 µM
16 | Cc1cccc(CN2CCCC2c2cncc(Nc3nncs3)n2)c1 (stereo not shown) [DDD01058843, CC1=CC=CC(CN2CCCC2C2=CN=CC(NC3=NN=CS3)=N2)=C1] | – | – | 0.319 µM | 78.8% | 0.32 µM
17 | Cc1cccc(CNC(Cc2ccsc2)c2nc(C)c(C)s2)n1 (stereo not shown) [DDD01059048, CC1=C(C)N=C(S1)C(CC1=CSC=C1)NCC1=CC=CC(C)=N1] | – | – | 3.9 µM | 65.3% | –
18 | Cc1nc(Nc2ncccn2)cc(C2CCCN2CC(C)C)n1 (stereo not shown) [DDD01061131, CC(C)CN1CCCC1C1=CC(NC2=NC=CC=N2)=NC(C)=N1] | – | – | 6.69 µM | 66.6% | –
19 | Cn1cccc1CNCC1CCCn2cc(C(C)(C)C)nc21 (stereo not shown) [DDD01062585, CN1C=CC=C1CNCC1CCCN2C=C(N=C12)C(C)(C)C] | – | – | 0.741 µM | 74% | 0.74 µM
